# Active and inactive are the calls of the source.
# Assays:
# [1] = A High Throughput Confirmatory Assay used to Identify Novel Compounds that Inhibit Mycobacterium Tuberculosis in the absence of Glycerol.; format: functional
# Mucolipin-3 = Mucolipin-3 (Homo sapiens, UniProt Q8TDD5); assay: Dose response cell-based high-throughput screening assay for agonists of the transient receptor potential channel ML3 (TRPML3). [Related pubchem assays: 1526, 1424, 1448 ]; format: functional
# Ion channel NompC = Ion channel NompC (Danio rerio, UniProt Q7T1G6); assay: Fluorescence counterscreen assay for TRPML3 agonists: dose response cell-based high-throughput screening assay to identify agonists of the transient receptor potential channel N1 (TRPN1). [Related pubchem assays: 1526, 1424, 1448 ]; format: functional
# [2] = molecular target: Transitional endoplasmic reticulum ATPase (Homo sapiens, UniProt P55072); assay: p97 ATPase inhibitors, dose response, biochemical (AID 1534)
# [3] = molecular target: Transitional endoplasmic reticulum ATPase (Homo sapiens, UniProt P55072, C522A); assay: C522A mutant p97 ATPase inhibitors, dose response, counter-screen for p97 inhibitor project, biochemical, luminescence (AID 1544)
# Estrogen receptor = Estrogen receptor (Homo sapiens, UniProt P03372);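 also: potency for inhibiting coactivator peptide recruitment to the receptor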
# Aminopeptidase N = molecular target: T1, Aminopeptidase N (Plasmodium falciparum FcB1/Columbia, UniProt O96935); assay: malaria alanyl aminopeptidase activity blockers – biochemical, fluorogenic H-Leu-NHMec substrate, 1536-well (AID 1445); design: species or system Plasmodium falciparum 3D7, 3D7
# T1 sequence (O96935 whole entry): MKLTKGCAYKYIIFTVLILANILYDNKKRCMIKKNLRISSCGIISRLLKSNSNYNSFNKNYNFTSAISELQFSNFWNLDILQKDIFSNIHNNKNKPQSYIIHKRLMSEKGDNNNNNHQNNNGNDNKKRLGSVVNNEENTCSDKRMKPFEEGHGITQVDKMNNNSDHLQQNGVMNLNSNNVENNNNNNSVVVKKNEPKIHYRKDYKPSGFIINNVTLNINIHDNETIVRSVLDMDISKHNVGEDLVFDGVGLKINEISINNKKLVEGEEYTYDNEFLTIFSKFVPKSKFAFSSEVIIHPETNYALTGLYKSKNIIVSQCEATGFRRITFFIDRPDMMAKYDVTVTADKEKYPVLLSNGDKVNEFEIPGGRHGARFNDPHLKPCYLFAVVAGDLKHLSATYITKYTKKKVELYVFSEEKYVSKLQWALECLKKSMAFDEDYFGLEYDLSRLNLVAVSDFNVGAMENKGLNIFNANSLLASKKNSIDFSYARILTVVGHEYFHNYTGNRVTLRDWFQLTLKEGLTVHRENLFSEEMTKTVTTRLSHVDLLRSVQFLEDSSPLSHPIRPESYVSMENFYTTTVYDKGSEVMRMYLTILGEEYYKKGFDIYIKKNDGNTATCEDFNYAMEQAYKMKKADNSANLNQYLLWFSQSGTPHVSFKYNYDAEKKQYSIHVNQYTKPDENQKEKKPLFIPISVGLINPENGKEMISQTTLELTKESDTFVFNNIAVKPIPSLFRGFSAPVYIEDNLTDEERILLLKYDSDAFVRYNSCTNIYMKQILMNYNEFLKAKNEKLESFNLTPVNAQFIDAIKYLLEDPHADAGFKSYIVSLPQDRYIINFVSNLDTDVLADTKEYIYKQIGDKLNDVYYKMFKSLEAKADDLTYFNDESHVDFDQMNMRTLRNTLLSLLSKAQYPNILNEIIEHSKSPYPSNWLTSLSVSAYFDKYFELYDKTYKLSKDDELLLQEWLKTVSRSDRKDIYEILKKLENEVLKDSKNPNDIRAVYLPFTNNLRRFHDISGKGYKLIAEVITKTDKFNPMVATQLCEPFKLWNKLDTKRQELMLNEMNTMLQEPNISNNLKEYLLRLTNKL
# [4] = Luminescence Cell-Based Dose Response HTS to Identify Activators of Luciferase Translation or Activity in H4 […] Cells. [Related pubchem assays: 1829 (Project Summary), 1814 (Primary HTS)]; format: functional
# [5] = Luminescence Cell-Based Dose Response to Identify Activators of Luciferase Translation or Activity in H4-C Neuroglioblastoma Cells. [Related pubchem assays: 1829 (Project Summary), 1814 (Primary HTS)]; format: functional
# [6] = Luminescence Cell-Based Dose Confirmation to Identify Activators of 5'UTR Stem-Loop Driven Alpha-Synuclein mRNA Translation in H4 Neuroglioblastoma Cells. [Related pubchem assays: 1829 (Project Summary), 1814 (Primary HTS)]; format: functional
# [7] = Luminescence Cell-Based Dose Response to Identify Activators of 5'UTR Stem-Loop Driven Prion Protein mRNA Translation in H4-C Neuroglioblastoma Cells. [Related pubchem assays: 1829 (Project Summary), 1814 (Primary HTS)]; format: functional
# Chain of Mucolipin-3 (Q8TDD5 whole entry): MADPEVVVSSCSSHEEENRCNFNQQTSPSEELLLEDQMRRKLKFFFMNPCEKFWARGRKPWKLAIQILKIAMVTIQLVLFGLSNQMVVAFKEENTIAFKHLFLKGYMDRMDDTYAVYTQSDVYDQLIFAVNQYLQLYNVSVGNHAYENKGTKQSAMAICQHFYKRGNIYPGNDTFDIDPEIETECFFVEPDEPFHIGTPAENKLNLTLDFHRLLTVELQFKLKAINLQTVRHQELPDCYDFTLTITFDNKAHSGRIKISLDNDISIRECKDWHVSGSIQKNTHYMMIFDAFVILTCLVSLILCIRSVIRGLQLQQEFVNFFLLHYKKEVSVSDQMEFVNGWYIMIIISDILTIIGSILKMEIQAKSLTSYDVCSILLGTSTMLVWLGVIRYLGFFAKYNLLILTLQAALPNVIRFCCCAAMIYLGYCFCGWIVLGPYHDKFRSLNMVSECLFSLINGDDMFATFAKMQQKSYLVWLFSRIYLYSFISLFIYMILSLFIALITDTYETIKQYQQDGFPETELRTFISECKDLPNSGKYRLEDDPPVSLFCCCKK
# Chain of Ion channel NompC (Q7T1G6 whole entry): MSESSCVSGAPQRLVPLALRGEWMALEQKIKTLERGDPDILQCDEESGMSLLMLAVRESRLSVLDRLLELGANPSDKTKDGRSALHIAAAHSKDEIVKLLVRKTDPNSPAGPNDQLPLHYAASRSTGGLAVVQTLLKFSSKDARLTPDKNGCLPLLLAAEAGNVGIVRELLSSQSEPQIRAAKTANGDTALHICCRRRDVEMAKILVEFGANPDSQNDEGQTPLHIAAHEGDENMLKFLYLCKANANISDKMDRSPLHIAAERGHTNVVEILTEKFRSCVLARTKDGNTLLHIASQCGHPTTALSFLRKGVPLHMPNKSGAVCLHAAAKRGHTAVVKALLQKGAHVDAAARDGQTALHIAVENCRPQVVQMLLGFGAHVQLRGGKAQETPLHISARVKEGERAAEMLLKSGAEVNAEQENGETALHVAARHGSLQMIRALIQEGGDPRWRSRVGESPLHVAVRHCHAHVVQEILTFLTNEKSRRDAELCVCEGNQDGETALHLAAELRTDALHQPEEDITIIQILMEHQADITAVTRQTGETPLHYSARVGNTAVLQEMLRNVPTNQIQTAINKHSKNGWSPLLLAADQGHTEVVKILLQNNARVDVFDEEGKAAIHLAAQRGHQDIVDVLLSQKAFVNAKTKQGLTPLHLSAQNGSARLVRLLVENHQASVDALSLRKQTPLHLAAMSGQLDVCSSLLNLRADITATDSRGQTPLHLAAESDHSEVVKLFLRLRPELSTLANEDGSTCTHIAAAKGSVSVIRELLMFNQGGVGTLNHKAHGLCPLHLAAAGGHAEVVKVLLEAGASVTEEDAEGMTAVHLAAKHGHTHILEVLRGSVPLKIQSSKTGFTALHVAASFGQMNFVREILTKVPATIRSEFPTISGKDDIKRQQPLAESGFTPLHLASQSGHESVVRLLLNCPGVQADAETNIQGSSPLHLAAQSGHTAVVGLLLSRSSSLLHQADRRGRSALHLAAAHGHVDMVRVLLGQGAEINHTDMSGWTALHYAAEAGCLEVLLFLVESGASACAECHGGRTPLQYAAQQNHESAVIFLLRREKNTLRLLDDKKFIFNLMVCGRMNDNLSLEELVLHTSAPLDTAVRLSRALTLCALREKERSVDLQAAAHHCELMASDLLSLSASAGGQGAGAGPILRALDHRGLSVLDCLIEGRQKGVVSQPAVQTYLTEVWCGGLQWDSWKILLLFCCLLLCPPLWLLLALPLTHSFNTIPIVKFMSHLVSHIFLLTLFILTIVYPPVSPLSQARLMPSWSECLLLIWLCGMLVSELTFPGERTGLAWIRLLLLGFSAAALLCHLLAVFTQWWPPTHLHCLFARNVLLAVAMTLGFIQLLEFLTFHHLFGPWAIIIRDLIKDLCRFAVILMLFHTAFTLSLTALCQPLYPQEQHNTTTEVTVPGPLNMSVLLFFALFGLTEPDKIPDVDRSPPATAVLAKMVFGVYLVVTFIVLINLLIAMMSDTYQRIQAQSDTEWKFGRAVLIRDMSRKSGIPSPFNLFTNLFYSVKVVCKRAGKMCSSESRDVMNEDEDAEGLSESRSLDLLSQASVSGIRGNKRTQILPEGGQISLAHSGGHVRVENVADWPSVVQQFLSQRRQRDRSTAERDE
# Chain of Transitional endoplasmic reticulum ATPase (Homo sapiens, UniProt P55072, C522A) (P55072 2-806 C522A limits assumed): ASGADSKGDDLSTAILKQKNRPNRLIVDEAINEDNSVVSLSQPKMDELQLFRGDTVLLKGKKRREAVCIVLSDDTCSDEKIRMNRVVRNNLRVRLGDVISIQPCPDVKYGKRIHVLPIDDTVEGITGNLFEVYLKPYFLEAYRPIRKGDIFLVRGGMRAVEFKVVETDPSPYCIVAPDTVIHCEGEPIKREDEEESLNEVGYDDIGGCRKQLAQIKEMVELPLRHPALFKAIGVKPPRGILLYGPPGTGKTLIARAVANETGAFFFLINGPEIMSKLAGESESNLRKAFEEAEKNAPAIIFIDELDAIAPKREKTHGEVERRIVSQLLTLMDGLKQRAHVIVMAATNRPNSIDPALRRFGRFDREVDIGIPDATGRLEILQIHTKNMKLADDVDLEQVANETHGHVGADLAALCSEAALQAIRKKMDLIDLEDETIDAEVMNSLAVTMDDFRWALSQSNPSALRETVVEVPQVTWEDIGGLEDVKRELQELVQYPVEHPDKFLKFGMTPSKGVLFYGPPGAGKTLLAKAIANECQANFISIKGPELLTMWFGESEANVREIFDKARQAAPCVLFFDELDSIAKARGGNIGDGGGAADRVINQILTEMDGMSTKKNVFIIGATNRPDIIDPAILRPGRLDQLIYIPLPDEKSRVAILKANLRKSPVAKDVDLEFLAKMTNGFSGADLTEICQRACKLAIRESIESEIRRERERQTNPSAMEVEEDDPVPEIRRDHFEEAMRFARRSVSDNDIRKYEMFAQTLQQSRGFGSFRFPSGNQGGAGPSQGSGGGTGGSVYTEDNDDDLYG
# Chain of Estrogen receptor (P03372 whole entry): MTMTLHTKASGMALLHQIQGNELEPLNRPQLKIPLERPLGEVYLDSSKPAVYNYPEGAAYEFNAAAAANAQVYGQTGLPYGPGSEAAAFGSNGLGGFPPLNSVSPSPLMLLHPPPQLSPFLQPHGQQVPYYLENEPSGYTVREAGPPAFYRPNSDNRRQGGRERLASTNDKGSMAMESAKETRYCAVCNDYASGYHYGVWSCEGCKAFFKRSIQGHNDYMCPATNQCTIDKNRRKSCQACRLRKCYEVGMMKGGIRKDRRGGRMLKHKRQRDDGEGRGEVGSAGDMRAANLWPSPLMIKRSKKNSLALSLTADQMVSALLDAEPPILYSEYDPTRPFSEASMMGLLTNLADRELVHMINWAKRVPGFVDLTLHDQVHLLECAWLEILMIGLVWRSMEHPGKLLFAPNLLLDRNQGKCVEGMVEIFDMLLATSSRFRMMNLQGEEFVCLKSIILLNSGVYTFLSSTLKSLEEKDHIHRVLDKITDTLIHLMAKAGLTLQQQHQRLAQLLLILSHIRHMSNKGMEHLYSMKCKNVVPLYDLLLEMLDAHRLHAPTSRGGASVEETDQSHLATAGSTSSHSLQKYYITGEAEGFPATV
# Chain of Transitional endoplasmic reticulum ATPase (Homo sapiens, UniProt P55072) (P55072 whole entry): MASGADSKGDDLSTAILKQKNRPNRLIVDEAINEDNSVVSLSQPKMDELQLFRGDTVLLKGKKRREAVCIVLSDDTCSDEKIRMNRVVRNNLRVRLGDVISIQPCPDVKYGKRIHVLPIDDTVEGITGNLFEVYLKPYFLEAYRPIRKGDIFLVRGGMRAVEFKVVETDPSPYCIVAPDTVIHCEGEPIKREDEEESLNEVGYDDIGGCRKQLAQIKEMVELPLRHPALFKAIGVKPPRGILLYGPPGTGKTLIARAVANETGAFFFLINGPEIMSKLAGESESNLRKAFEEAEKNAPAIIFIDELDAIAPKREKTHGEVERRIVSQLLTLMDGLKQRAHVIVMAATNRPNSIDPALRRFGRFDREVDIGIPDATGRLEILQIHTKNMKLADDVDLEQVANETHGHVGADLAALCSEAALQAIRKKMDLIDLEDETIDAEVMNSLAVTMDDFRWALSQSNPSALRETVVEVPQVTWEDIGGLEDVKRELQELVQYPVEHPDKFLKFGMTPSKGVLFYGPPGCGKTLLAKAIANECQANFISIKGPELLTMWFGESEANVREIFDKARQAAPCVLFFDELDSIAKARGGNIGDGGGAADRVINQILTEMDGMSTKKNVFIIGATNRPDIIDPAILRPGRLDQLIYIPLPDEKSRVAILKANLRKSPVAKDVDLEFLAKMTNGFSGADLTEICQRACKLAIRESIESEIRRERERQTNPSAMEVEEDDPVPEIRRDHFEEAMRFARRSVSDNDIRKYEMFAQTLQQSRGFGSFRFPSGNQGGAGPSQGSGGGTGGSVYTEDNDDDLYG
compound,measurement,setting,value
Cc1ccc(NC(=O)c2sccc2-n2cccc2)c(C)c1,IC50,[1],> 100 µM (active)
COc1cc(S(=O)(=O)N2CCCCCC2)ccc1Cl,EC50,Mucolipin-3,1.9 µM (active)
same,EC50,Ion channel NompC,> 29.9 µM (not active)
CSC1=NSC2=NC(=O)/C(=C\c3c(C)[nH]c4ccccc34)C(=N)N12,IC50,[2],21.7 µM (not active)
same,IC50,[3],> 50 µM (not active)
CCN(CC)C(=O)CC1(c2ccccc2OC)CCOC(C(C)C)C1 (centres undefined),EC50,Mucolipin-3,6.96 µM (active)
same,EC50,Ion channel NompC,> 29.9 µM (not active)
O=C1CC(c2ccco2)CC(O)=C1/C=N/c1cc(Cl)ccc1O (centres undefined),IC50,Estrogen receptor,43.8 µM (not active)
same,IC50,Aminopeptidase N,5.58 µM (active)
CSc1nsc(N/N=C/c2ccc3c(c2)OCO3)c1C#N,EC50,[4],< 0.1 µM (inconclusive)
same,EC50,[5],0.303 µM (active)
same,EC50,[6],0.415 µM (active)
same,EC50,[7],0.314 µM (active)
O=S1(=O)CCC(/N=C/c2ccc(-c3ccc(Cl)cc3)o2)C1 (centres undefined),IC50,[1],> 100 µM (active)

# — ChEMBL document CHEMBL1201862, “PubChem BioAssay data set” (2004)
